For one data set, the system named is Jurkat. The data set can be described thus: Growth inhibition of human Jurkat cells after 96 hrs. Format: functional, cell-based.
A short description of data set [1]: Chemical stability in phosphate buffer saline at pH 7.4. Format: physicochemical.

The structures appear in SMILES notation. pIC50: −log10 of the molar value.

What is called pIC50 is the IC50 on a negative log10 scale, so that one unit is a factor of ten. The low end stands for a high IC50, the high end for a low IC50. The compound `CC[C@@]1(OC(=O)CCC(P(=O)(O)O)P(=O)(O)O)C(=O)OCc2c1cc1n(c2=O)Cc2cc3ccccc3nc2-1` [CAMDRONATE] gave a pIC50 in the data set with Jurkat of 7.68.

Regarding `CC[C@@]1(O)C(=O)OCc2c1cc1n(c2=O)Cc2cc3ccccc3nc2-1` [CAMPTOTHECIN], in the data set on Jurkat, the pIC50 was 8.85.

Broadly, the half-life is how long it takes for the measured level to halve. In turn, `COc1cc(COC(=O)NC(Cc2c[nH]c3ccccc23)C(=O)O)cc(OC)c1OC(=O)OCCCCCCC(P(=O)(O)O)P(=O)(O)O` (stereo not drawn) [TRYPDRONATE] gave a half-life in data set [1] of 90 h.

These data come from ChEMBL document CHEMBL1141583, “Chemotherapeutic bone-targeted bisphosphonate prodrugs with hydrolytic mode of activation” (Bioorg Med Chem Lett, 2008).
